In brackets after ≈: the same amount, converted by molar mass. Read-outs that look alike come from different tables or passages of the source.

One series deals with HIV. As to conditions: cited from earlier work.
Series [1] deals with almond β-glucosidase. Kind of series: Beta-glucosidase inhibition assay, pH 7.4. In kind it is biochemical. The settings on record: for Inhibition Index (first, head is drawing 3) / Inhibition Index (second, head is drawing 4): ratio of IC50 values; for Inhibition Index (first, head is drawing 3): numerically almond pH 4.8 / almond pH 7.4; for Inhibition Index (second, head is drawing 4): numerically yeast α pH 7.4 / almond β pH 7.4; for Enzyme Inhibition, Almond β-Glucosidase pH 7.4 / IC50: pH 7.4; for IC50: read-out: Enzyme Inhibition-IC50, Almond β-Glucosidase pH 7.4. How it is done:
(§1) Yeast alpha-glucosidase and almond beta-glucosidase activities were measured by a modification of the method of Evans, et al., Phytochemistry 22, 768-770 (1983). The modifications included 1) assay of activities at pH 7.4 in HEPES (N-2-hydroxyethylpiperazine-N'-2-ethanesulfonic acid) buffer, 2) measurement in 96 well microtiter plates and 3) inclusion of 10% DMSO in control and test samples.
(§2) The release of p-nitrophenol from the substrate p-nitrophenylglycoside was measured spectrophotometrically in the presence and absence of test compound. Each assay included a known inhibitor of the enzyme as a standard.
To 100 μl 50 mM HEPES buffer, pH 7.4, in a microtiter plate, add 20 μl test compound in DMSO (DMSO alone in control), 40 μl (0.136 units) beta-glucosidase (Sigma) in HEPES buffer and pre-incubate at room temperature for 15 minutes. Add 40 μl 1.25 mM p-nitrophenyl-beta-D-glucopyranoside in HEPES buffer, as substrate and monitor absorbance change at 405 nm in a Biotek EIA Autoreader. Absorption change was measured at 15 to 25 minutes (reaction is linear for at least 30 minutes). Each sample was tested in triplicate. […] Castanospermine was used as standard inhibitor.

The next series concerns the target T1, yeast α-glucosidase (Saccharomyces cerevisiae, UniProt P53341).
T1 construct: purchased Sigma
In words: Alpha-glucosidase inhibition assay, pH 7.4. The format is biochemical. How it is done:
as §1, §2
To 100 μl 50 mM HEPES buffer, pH 7.4, in a microtiter plate, add 20 μl test compound in DMSO (DMSO alone in control), 40 μl (0.013 units) yeast alpha-glucosidase (Sigma) in HEPES buffer and pre-incubate at room temperature for 15 minutes. Add 40 μl 1.25 mM p-nitrophenyl-alpha-D-glucopyranoside (Sigma) in HEPES buffer, as substrate, and monitor absorbance change at 405 nm in Biotek EIA Auto-reader. Absorption change was measured at 15 to 25 minutes (reaction was linear for at least 30 minutes). Each sample was tested in triplicate. […] Deoxynojirimycin was used as standard inhibitor.

In series [2] the target is almond β-glucosidase. Kind of series: Beta-glucosidase inhibition assay, pH 4.8. The format is biochemical. As to conditions: for IC50: read-out: Enzyme Inhibition-IC50, Almond β-Glucosidase pH 4.8. Here is the method:
as §1, §2
To 100 μl 50 mM sodium citrate buffer, pH 4.8, in a microtiter plate, add 15 μl test compound in DMSO (DMSO alone in control), 20 μl (0.017 units) beta-glucosidase (Sigma) in citrate buffer and pre-incubate at room temperature for 15 minutes. Add 25 μl 2.50 mM p-nitrophenyl-beta-D-glucopyranside in citrate buffer, as substrate. […] Add 50 μl 0.4M NaOH. Read absorption change at 405 nm in a Biotek EIA Autoreader. Each sample was tested in triplicate. […] Castanospermine was used as standard inhibitor.

The next series relates to HIV-1, strain HTLV-IIIB. In words: Reduction of cytopathogenic effect (CPE) in HIV-1 infected CEM cells, MTT assay. The format is cell-based. Here is the method: These tests involved plating of susceptible human host cells which are syncytium-sensitive with and without virus in microculture plates, adding various concentrations of the test compound, incubating the plates for 9 days (during which time infected, non-drug treated control cells are largely or totally destroyed by the virus), and then determining the number of remaining viable cells using a colorimetric endpoint.
Tissue culture plates were incubated at 37° C. in a humidified, 5% CO2 atmosphere and observed microscopically for toxicity and/or cytopathogenic effect (CPE). At 2 and 6 days after infection, fresh dilutions of each test article were prepared from the frozen stock, and a 20 μl volume of each dilution (prepared as a 10× concentration was added to the appropriate wells of both infected and uninfected cells.
On the 9th day post-infection, the cells in each well were resuspended and a 100 μl sample of each cell suspension was removed for use in an MTT assay. A 20 μl volume of a 5 mg/ml solution of 3-(4,5-dimethylthiazol-2-yl)-2,5-diphenyltetrazolium bromide (MTT) was added to each 100 μl cell suspension, and the cells were incubated at 37° C. in 5% CO2 for 4 hours. […] A 100 μl volume of a solution of 10% sodium dodecyl sulfate in 0.01N hydrochloric acid wa added to each sample, and the samples were incubated overnight. The absorbance at 590 nm was determined for each sample using a Molecular Devices Vmax microplate reader. This assay detects drug-induced suppression of viral CPE, as well as drug cytotoxicity, by measuring the generation of MTT-formazan by surviving cells.
Assays were done in 96-well tissue culture plates. CEM cells were treated with polybrene at a concentration of 2 μg/ml, and an 80 μl volume of cells (1×10^4 cells) was dispensed into each well. A 100 μl volume of each test article dilution (prepared as a 2× concentration) was added to 5 wells of cells, and the cells were incubated at 37° C. for 1 hour. A frozen culture of HIV-1, strain HTLV-IIIB, was diluted in culture medium to a concentration of 5×10^4 TCID50 per ml, and a 20 μl volume (containing 10^3 TCID50 of virus) was added to 3 of the wells for each test article concentration. […] A 20 μl volume of normal culture medium was added to the remaining wells to allow evaluation of cytotoxicity. Each plate contained 6 wells of untreated, uninfected, cell control samples and 6 wells of untreated, infected, virus control samples. Dideoxycytidine (DDC) and dideoxyadenosine (DDA) were included as positive control compounds.
(Protection from cytopathic effect is a common read-out in antiviral testing.)

In another series the target is glucosidase I. The settings on record: Schweden et al.; compared to N-methyl- and N-butyl-derivatives; cited from earlier work.
The test system of another series is visna virus. Kind of series: Plaque reduction assay, inhibition of visna virus in vitro. The format is cell-based. The settings on record: Visna-maedi virus, read-out: Antiviral Activity (plaque reduction). How it is done:
(§3) Sheep choroid plexus(SCP) cells were obtained from American Type Culture Collection (ATCC) catalogue number CRL 1700 and were routinely passaged in vitro in Dulbecco's Modified Eagles (DME) medium supplemented with 20% fetal bovine serum (FBS). SCP cells were passaged once per week at a 1:2 or 1:3 split ratio. Visna was titrated by plaque assay in six-well plates. Virus pools were stored at -70° C.
(§4) SCP cells were cultured in 6-well plates to confluence. Wells were washed two times with serum free Minimal Essential Medium (MEM) to remove FBS. 0.2 ml of virus was added per well in MEM supplemented with 4 mM glutamine and gentamycin. After 1 hour adsorption, the virus was aspirated from each well. The appropriate concentration of each compound in 5 ml of Medium 199 (M-199) supplemented with 2% lamb serum, 4 mM glutamine, 0.5% agarose and gentamycin was added to each well. […] To terminate the test: cultures were fixed in 10% formalin, the agar removed, the monolayers stained with 1% crystal violet and plaques counted. Each compound concentration was run in triplicate. […] 0 is no toxicity observed while 4 is total lysing of the cell monolayer.

Series [3] has as its system Sheep choroid plexus (SCP) cells. In words: Toxicity in control wells (without virus) of the plaque reduction assay. In kind it is cell-based. Also on record: key: 0: no toxicity; 4: total cell lysates. As to conditions: graded 0 to 4. Here is the method: as §3, §4
Toxicity graded on 0 to 4 scale 0 = no toxicity, 4 = total cell lysates
In general terms: Plaque reduction counts the foci of infection that form in a cell layer.

T1 sequence (P53341 whole entry): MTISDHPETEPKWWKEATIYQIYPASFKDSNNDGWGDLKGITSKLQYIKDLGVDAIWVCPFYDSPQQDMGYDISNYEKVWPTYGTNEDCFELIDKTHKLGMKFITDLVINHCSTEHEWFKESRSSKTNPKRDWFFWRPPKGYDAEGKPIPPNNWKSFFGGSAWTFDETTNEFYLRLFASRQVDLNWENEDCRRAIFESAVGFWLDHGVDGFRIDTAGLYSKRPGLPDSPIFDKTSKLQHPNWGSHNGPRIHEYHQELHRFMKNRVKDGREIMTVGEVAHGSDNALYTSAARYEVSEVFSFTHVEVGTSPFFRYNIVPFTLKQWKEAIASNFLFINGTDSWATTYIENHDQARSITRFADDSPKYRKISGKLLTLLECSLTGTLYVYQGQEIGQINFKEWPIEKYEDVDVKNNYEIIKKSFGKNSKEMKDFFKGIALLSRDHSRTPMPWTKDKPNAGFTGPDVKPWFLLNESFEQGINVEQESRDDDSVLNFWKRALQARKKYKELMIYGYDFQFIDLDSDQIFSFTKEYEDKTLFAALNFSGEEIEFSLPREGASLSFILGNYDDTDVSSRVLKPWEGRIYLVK

Turning to `O[C@@H]1[C@@H](O)[C@@H](O)CN2CC[C@@H](O)[C@@H]12` [L-6-epicastanospermine], in the series on HIV (literature), the “HIV inhibitory / antiviral activity” value is on record as “neither the epimer L-1,6-diepicastanospermine nor the stereoisomer of castanospermine, L-6-epicastanospermine, were found to be inhibitory”.

For `CCN1C[C@H](O)[C@@H](O)[C@H](O)[C@H]1CO` [Ethyl, reference compound], in the series with almond β-glucosidase [1] (at 1 mM), the “Enzyme Inhibition, Almond β-Glucosidase pH 7.4” value is listed as 67%. For the same molecule, in the series with almond β-glucosidase [1], the “Inhibition Index (first, head is drawing 3)” value was ~ 1 and the “Inhibition Index (second, head is drawing 4)” value was ~ 1. For the same molecule, the “reduction of the yield of infectious HIV” value in the series on HIV (Karpas et al.) is recorded as “three”. For the same molecule, the inhibition at 1000 µM at yeast α-glucosidase (pH 7.4, read-out: Enzyme Inhibition, Yeast α-Glucosidase pH 7.4) is 51%. Further, on almond β-glucosidase [2], the IC50 was ~1000 µM.

As for `CCCCCN1C[C@H](O)[C@@H](O)[C@H](O)[C@H]1CO` [Example 1, 1,5-(Pentylimino)-1,5-dideoxy-D-glucitol], at almond β-glucosidase [1], the IC50 is 15 µM; the “Inhibition Index (first, head is drawing 3)” value is 28.2; the “Inhibition Index (second, head is drawing 4)” value amounted to 29.5. Besides, at yeast α-glucosidase (pH 7.4, read-out: Enzyme Inhibition-IC50, Yeast α-Glucosidase pH 7.4), the IC50 is 444 µM. For the same molecule, the IC50 on almond β-glucosidase [2] came to 423 µM.

With `O[C@@H]1[C@@H](O)[C@@H](O)CN2CC[C@H](O)[C@@H]12` [L-1,6-diepicastanospermine], the “HIV inhibitory / antiviral activity” value in the series on HIV (literature) is given as “neither the epimer L-1,6-diepicastanospermine nor the stereoisomer of castanospermine, L-6-epicastanospermine, were found to be inhibitory”.

Consider `Nc1ccn([C@H]2CC[C@@H](CO)O2)c(=O)n1` [DDC, Dideoxycytidine, reference compound], for which, in the series with HIV-1, strain HTLV-IIIB (Human immunodeficiency virus 1, IIIB, CCRF-CEM, 216 h, 0.01 μg/ml, read-out: Percent Reduction of CPE), the inhibition at 0.01 µg/mL was determined as 41.5%. For the same molecule, in the series on HIV-1, strain HTLV-IIIB (Human immunodeficiency virus 1, IIIB, CCRF-CEM, 216 h, 0.032 μg/ml, read-out: Percent Reduction of CPE), the inhibition at 0.032 µg/mL was determined as 73.9%. Further, the IC50 with HIV-1, strain HTLV-IIIB (Human immunodeficiency virus 1, IIIB, CCRF-CEM, 216 h, HIV-1, CEM cells, reduction of CPE, read-out: ID50 (median inhibitory dose)) came out at 0.01 µg/mL (≈ 0.0473 µM).

Consider `CCCCCCCCCCN1C[C@H](O)[C@@H](O)[C@H](O)[C@H]1CO` [N-decyl-derivatives, reference compound], for which, at glucosidase I, the “Ki, glucosidase I” value was “greater Ki values than the N-methyl- and N-butyl-derivatives”.

Regarding `Cc1cn([C@H]2C[C@H](N=[N+]=[N-])[C@@H](CO)O2)c(=O)[nH]c1=O` [AZT, 3'-azido-3'-deoxythymidine], the “HIV inhibitory / antiviral activity” value in the series with HIV (literature) is given as “inhibit replication of the virus in vitro”.

As to `CCCCCCCCCCCCCCN1C[C@H](O)[C@@H](O)[C@H](O)[C@H]1CO` [Example 4, 1,5-(Tetradecylimino)-1,5-dideoxy-D-glucitol], in the series on almond β-glucosidase [1] (at 10 μM), the “Enzyme Inhibition, Almond β-Glucosidase pH 7.4” value worked out at 31%. In addition, the inhibition at 10 µM in the series on visna virus (10 μM) turned out to be 84%; on yeast α-glucosidase (pH 7.4, at 10 μM, read-out: Enzyme Inhibition, Yeast α-Glucosidase pH 7.4), 0%. In the series with visna virus (0.1 mM), the inhibition at 100 µM was found to be 100%. Besides, the inhibition at 1000 µM in the series on visna virus (1 mM) worked out at 100%. For the same molecule, the results for the Toxicity in series [3] (10 μM), in series [3] (0.1 mM) and in series [3] (1 mM) were 1, 4 and 4, respectively. Moreover, the “Enzyme Inhibition, Almond β-Glucosidase pH 4.8” value in the series with almond β-glucosidase [2] (at 10 μM) was 22%.

In the case of `O=c1[nH]cnc2c1ncn2[C@H]1CC[C@@H](CO)O1` [DDI, reference compound], the “Percent Reduction of CPE” value in the series with HIV-1, strain HTLV-IIIB (1.0 μg/ml, 12960 min) is 28.3%; in the series on HIV-1, strain HTLV-IIIB (3.2 μg/ml, 12960 min) it was 49.6%; in the series with HIV-1, strain HTLV-IIIB (10 μg/ml, 12960 min) it was 75.6%. For the same molecule, the “ID50 (median inhibitory dose)” value in the series with HIV-1, strain HTLV-IIIB (HIV-1, CEM cells, reduction of CPE, 12960 min) worked out at 3.0 µg/mL (≈ 12.7 µM).

Consider `O[C@H]1[C@H](O)[C@@H](O)CN2CC[C@H](O)[C@H]12` [castanospermine], for which, in the series with HIV (literature), the “HIV inhibitory / antiviral activity” value is recorded as “inhibition of the cytopathic effect (CPE)” and the “reduction in virion infectivity” value is listed as “only a modest reduction in virion infectivity”.

Take `CN1C[C@H](O)[C@@H](O)[C@H](O)[C@H]1CO` [Methyl, N-methyl-deoxynojirimycin, reference compound]: the figures for the IC50 on almond β-glucosidase [1], on yeast α-glucosidase and on almond β-glucosidase [2] were 102 µM, 54 µM and 366 µM, respectively. In addition, in the series on almond β-glucosidase [1], the “Inhibition Index (first, head is drawing 3)” value is reported as 3.5. Also, the “Inhibition Index (second, head is drawing 4)” value in the series with almond β-glucosidase [1] worked out at 0.53. The “HIV inhibitory / antiviral activity” value in the series on HIV (literature) is listed as “significant antiviral activity”; in the series with HIV (literature, listed as N-methyl derivative of deoxynojirimycin (DNJ)) it was “activity against HIV”.

The values are drawn from patent US5030638A, “Method of antiviral enhancement” (priority 1990, dated 1991).
